What all share (type): functional
Experiment [1] can be described thus: Cytotoxicity of compound was measured on osteoclastic cells.
Experiment [2] is described as follows: Ability to inhibit the resorption pits formation by osteoclast-like cell(OCL) induced by 1-alpha,25-dihydroxy vitamin D3.
Experiment [3] in a line: Ability to inhibit the resorption pits formation by osteoclast-like cell(OCL) induced by 1-alpha,25-dihydroxy vitamin D3 at conc. 0.37 ug/ml.
A short description of experiment [4]: Ability to inhibit the resorption pits formation by osteoclast-like cell(OCL) induced by 1-alpha,25-dihydroxy vitamin D3 at conc. 1.11 ug/ml.
The nature of experiment [5]: Ability to inhibit the resorption pits formation by osteoclast-like cell(OCL) induced by 1-alpha,25-dihydroxy vitamin D3 at conc. 10.00 ug/ml.
The nature of experiment [6]: Ability to inhibit the resorption pits formation by osteoclast-like cell(OCL) induced by 1-alpha,25-dihydroxy vitamin D3 at conc. 3.33 ug/ml.
A short description of experiment [7]: Bone resorption pits formation by osteoclast-like cell(OCL) induced by 1-alpha,25-dihydroxy vitamin D3 at 0.37 ug/ml concentration.
Experiment [8] is described as follows: Bone resorption pits formation by osteoclast-like cell(OCL) induced by 1-alpha,25-dihydroxy vitamin D3 at 1.11 ug/ml concentration.
Experiment [9] in a line: Bone resorption pits formation by osteoclast-like cell(OCL) induced by 1-alpha,25-dihydroxy vitamin D3 at 10 ug/ml concentration.
The nature of experiment [10]: Bone resorption pits formation by osteoclast-like cell(OCL) induced by 1-alpha,25-dihydroxy vitamin D3 at 3.33 ug/ml concentration.

≈ marks a conversion by molar mass, not a printed value.

Broadly, the CC50 is the concentration at which the toxic effect on the cells reaches its halfway point. The term IC50 denotes the midpoint of a concentration-inhibition curve. A low value points to inhibition by little substance. By inhibition is commonly meant the relative decrease from the control value, in per cent. Higher therefore signals a strong effect. In turn, `CC(C)=CCc1cc(C2CC(=O)c3cc(CC=C(C)C)c(O)cc3O2)ccc1O` (centres undefined) gave a CC50 in experiment [1] of 18.2 µg/mL (≈ 46.4 µM). The compound further returned an IC50 in experiment [2] of 5.7 µg/mL (≈ 14.5 µM). Testing at 0.37 µg/mL in experiment [3] gave an inhibition of 21.7%. This compound also gave an inhibition at 1.11 µg/mL in experiment [4] of 41.2%. For the same compound, 10 µg/mL produced 84.2% inhibition in [5]. In addition, testing at 3.33 µg/mL in [6] gave an inhibition of 41.3%. The No. of pits in [7] is 112; in experiment [8], 87; in [9], 23; in experiment [10], 84.

In experiment [1], `CC(C)=CCc1cc(C2CC(=O)c3ccc4c(c3O2)C=CC(C)(C)O4)ccc1O` (centres undefined) yielded a CC50 of 16.8 µg/mL (≈ 43 µM). The midpoint of inhibition in experiment [2], the IC50, lay at 0.7 µg/mL (≈ 1.79 µM). The compound also displayed an inhibition at 0.37 µg/mL in experiment [3] of 48.3%. The compound further came in with an inhibition at 1.11 µg/mL in experiment [4] of 54.1%. In experiment [5], this compound registered an inhibition at 10 µg/mL of 78.1%. In [6], the inhibition at 3.33 µg/mL came out at 62.2%. For the same compound, the No. of pits is listed as 74 in experiment [7], 68 in experiment [8], 32 in [9] and 54 in [10].

For the compound `CC(C)=CCc1cc(C2CC(=O)c3cc(CC=C(C)C)c(O)c(CC=C(C)C)c3O2)ccc1O` (centres undefined), the CC50 in experiment [1] was found to be 10.4 µg/mL (≈ 22.6 µM). For the same compound, inhibition in [2] was half-maximal at 10.9 µg/mL (≈ 23.7 µM) (IC50). In addition, the inhibition at 0.37 µg/mL in [3] is less than 5%. For the same compound, the inhibition at 1.11 µg/mL in experiment [4] is 18.9%. The inhibition at 10 µg/mL in experiment [5] was found to be 45.2%. In experiment [6], this compound had an inhibition at 3.33 µg/mL of 24.4%. The No. of pits in experiment [7] is listed as 150; in [8], 120; in experiment [9], 80; in experiment [10], 108.

As to `CO[C@H]1[C@@H](OC)C[C@H](C)[C@@H](OC)C2=CC(=O)C=C(NC(=O)/C(C)=C/C=C/[C@H](OC)[C@@H](OC(N)=O)/C(C)=C/[C@@H]1C)C2=O` [HERBIMYCIN], the CC50 in experiment [1] turned out to be 1.72 µg/mL (≈ 2.99 µM). Also, the IC50 in experiment [2] was 1.1 µg/mL (≈ 1.91 µM). Further, 0.37 µg/mL produced 37.8% inhibition in [3]. The same compound registered an inhibition at 1.11 µg/mL in experiment [4] of 50.7%.

(Values after ChEMBL document CHEMBL1131718, “Syntheses of (+/-)-shinflavanone and its structural analogues as potent inhibitors of bone resorption pits formation” (Bioorg Med Chem Lett, 1999).)
